From PubChem BioAssay AID1963974 (Molecular Pharmacology Branch, DTP, NCI, 2024)

Tested on: 648629-189-R-J1-PDC spheroids with HUVEC/MSC, viability
Experiment: Anticancer human tumor 648629-189-R-J1-PDC patient-derived bladder carcinoma cell line growth inhibition [PI3K]
Conditions: for IC50: curve of first compound; for viability, T/C: stronger effect = lower value; active = viability on the fitted dose curve at most 10% of control; inactive = the rest
Outline: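 Three cell types, namely tumor cells, endothelial cells and mesenchymal stem cells, formed each spheroid. Combinations with four PI3K inhibitors were screened at clinically achievable concentrations decreasing by half-log, and spheroid viability was recorded.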

[1] = second compound 0.0316 µM, first compound 0.0316 µM
[2] = second compound 0.0316 µM, first compound 0.1 µM
[3] = second compound 0.0316 µM, first compound 0.316 µM
[4] = second compound 0.0316 µM, first compound 1 µM
[5] = second compound 0.0316 µM, first compound 3.16 µM
[6] = second compound 0.0316 µM, first compound 10 µM
[7] = second compound 0.1 µM, first compound 0.0316 µM
[8] = second compound 0.1 µM, first compound 0.1 µM
[9] = second compound 0.1 µM, first compound 0.316 µM
[10] = second compound 0.1 µM, first compound 1 µM
[11] = second compound 0.1 µM, first compound 3.16 µM
[12] = second compound 0.1 µM, first compound 10 µM
[13] = second compound 0.316 µM, first compound 0.0316 µM
[14] = second compound 0.316 µM, first compound 0.1 µM
[15] = second compound 0.316 µM, first compound 0.316 µM
[16] = second compound 0.316 µM, first compound 1 µM
[17] = second compound 0.316 µM, first compound 3.16 µM
[18] = second compound 0.316 µM, first compound 10 µM
[19] = second compound 1 µM, first compound 0.0316 µM
[20] = second compound 1 µM, first compound 0.1 µM
[21] = second compound 1 µM, first compound 0.316 µM
[22] = second compound 1 µM, first compound 1 µM
[23] = second compound 1 µM, first compound 3.16 µM
[24] = second compound 1 µM, first compound 10 µM
[25] = second compound 3.16 µM, first compound 0.0316 µM
[26] = second compound 3.16 µM, first compound 0.1 µM
[27] = second compound 3.16 µM, first compound 0.316 µM
[28] = second compound 3.16 µM, first compound 1 µM
[29] = second compound 3.16 µM, first compound 3.16 µM
[30] = second compound 3.16 µM, first compound 10 µM
[31] = second compound 10 µM, first compound 0.0316 µM
[32] = second compound 10 µM, first compound 0.1 µM
[33] = second compound 10 µM, first compound 0.316 µM
[34] = second compound 10 µM, first compound 1 µM
[35] = second compound 10 µM, first compound 3.16 µM
[36] = second compound 10 µM, first compound 10 µM
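Note: spheroids exposed to agents for seven days before reading.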
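Throughout, for viability, T/C: percent of vehicle control luminescence where 100% = DMSO treated spheroids.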

Cn1cnc2c(F)c(Nc3ccc(Br)cc3Cl)c(C(=O)NOCCO)cc21 + CC(Nc1ncnc2nc[nH]c12)c1cc2cccc(Cl)c2c(=O)n1-c1ccccc1
> 3 µM: IC50 (second compound 0.0316 µM) | IC50 (second compound 0.1 µM) | IC50 (second compound 0.316 µM) | IC50 (second compound 1 µM) | IC50 (second compound 3.16 µM) | IC50 (second compound 10 µM)
inactive: viability, T/C (second compound 0.0316 µM, first compound 0.00949 µM) 101% | viability, T/C (second compound 0.0316 µM, first compound 0.03 µM) 86.2% | viability, T/C (second compound 0.0316 µM, first compound 0.0949 µM) 84% | viability, T/C (second compound 0.0316 µM, first compound 0.3 µM) 101% | viability, T/C (second compound 0.0316 µM, first compound 0.949 µM) 93.6% | viability, T/C (second compound 0.0316 µM, first compound 3 µM) 81.6% | viability, T/C (second compound 0.1 µM, first compound 0.00949 µM) 97.1% | viability, T/C (second compound 0.1 µM, first compound 0.03 µM) 93.6% | viability, T/C (second compound 0.1 µM, first compound 0.0949 µM) 102% | viability, T/C (second compound 0.1 µM, first compound 0.3 µM) 95.5% | viability, T/C (second compound 0.1 µM, first compound 0.949 µM) 107% | viability, T/C (second compound 0.1 µM, first compound 3 µM) 90.1% | viability, T/C (second compound 0.316 µM, first compound 0.00949 µM) 95.8% | viability, T/C (second compound 0.316 µM, first compound 0.03 µM) 101% | viability, T/C (second compound 0.316 µM, first compound 0.0949 µM) 94% | viability, T/C (second compound 0.316 µM, first compound 0.3 µM) 114% | viability, T/C (second compound 0.316 µM, first compound 0.949 µM) 105% | viability, T/C (second compound 0.316 µM, first compound 3 µM) 79.2% | viability, T/C (second compound 1 µM, first compound 0.00949 µM) 105% | viability, T/C (second compound 1 µM, first compound 0.03 µM) 100% | viability, T/C (second compound 1 µM, first compound 0.0949 µM) 94.9% | viability, T/C (second compound 1 µM, first compound 0.3 µM) 98.9% | viability, T/C (second compound 1 µM, first compound 0.949 µM) 88.3% | viability, T/C (second compound 1 µM, first compound 3 µM) 88.2% | viability, T/C (second compound 3.16 µM, first compound 0.00949 µM) 103% | viability, T/C (second compound 3.16 µM, first compound 0.03 µM) 101% | viability, T/C (second compound 3.16 µM, first compound 0.0949 µM) 94.2% | viability, T/C (second compound 3.16 µM, first compound 0.3 µM) 108% | viability, T/C (second compound 3.16 µM, first compound 0.949 µM) 89.2% | viability, T/C (second compound 3.16 µM, first compound 3 µM) 84.4% | viability, T/C (second compound 10 µM, first compound 0.00949 µM) 93.2% | viability, T/C (second compound 10 µM, first compound 0.03 µM) 80.3% | viability, T/C (second compound 10 µM, first compound 0.0949 µM) 92.1% | viability, T/C (second compound 10 µM, first compound 0.3 µM) 92.8% | viability, T/C (second compound 10 µM, first compound 0.949 µM) 79% | viability, T/C (second compound 10 µM, first compound 3 µM) 68.6%

CCCS(=O)(=O)Nc1ccc(F)c(C(=O)c2c[nH]c3ncc(-c4ccc(Cl)cc4)cc23)c1F + CC(Nc1ncnc2nc[nH]c12)c1cc2cccc(Cl)c2c(=O)n1-c1ccccc1
4.28 µM: IC50 (second compound 3.16 µM)
5.27 µM: IC50 (second compound 0.316 µM)
5.23 µM: IC50 (second compound 0.0316 µM)
inactive: viability, T/C [1] 99.8% | viability, T/C [2] 95.1% | viability, T/C [3] 120% | viability, T/C [4] 98.3% | viability, T/C [5] 88.2% | viability, T/C [7] 103% | viability, T/C [8] 96.7% | viability, T/C [9] 91.8% | viability, T/C [10] 98.9% | viability, T/C [11] 100% | viability, T/C [13] 109% | viability, T/C [14] 108% | viability, T/C [15] 99.2% | viability, T/C [16] 109% | viability, T/C [17] 89.4% | viability, T/C [19] 101% | viability, T/C [20] 88.7% | viability, T/C [21] 96.2% | viability, T/C [22] 99.2% | viability, T/C [23] 89.1% | viability, T/C [25] 91.1% | viability, T/C [26] 103% | viability, T/C [27] 92.2% | viability, T/C [28] 89.5% | viability, T/C [29] 67.6% | viability, T/C [31] 86.9% | viability, T/C [32] 77.6% | viability, T/C [33] 81.9% | viability, T/C [34] 80.2% | viability, T/C [35] 60.6%
3.88 µM: IC50 (second compound 10 µM)
active: viability, T/C [6] 0.98% | viability, T/C [12] 0.84% | viability, T/C [18] 0.43% | viability, T/C [24] 0.46% | viability, T/C [30] 0.83% | viability, T/C [36] 1.35%
5.59 µM: IC50 (second compound 0.1 µM)
5.26 µM: IC50 (second compound 1 µM)

CNC(=O)c1ccc(N2C(=S)N(c3ccc(C#N)c(C(F)(F)F)c3)C(=O)C2(C)C)cc1F + CC(Nc1ncnc2nc[nH]c12)c1cc2cccc(Cl)c2c(=O)n1-c1ccccc1
inactive: viability, T/C [1] 113% | viability, T/C [2] 107% | viability, T/C [3] 101% | viability, T/C [4] 102% | viability, T/C [5] 102% | viability, T/C [6] 87.4% | viability, T/C [7] 113% | viability, T/C [8] 98.9% | viability, T/C [9] 96.6% | viability, T/C [10] 97.8% | viability, T/C [11] 92.8% | viability, T/C [12] 80.2% | viability, T/C [13] 105% | viability, T/C [14] 111% | viability, T/C [15] 93.5% | viability, T/C [16] 104% | viability, T/C [17] 118% | viability, T/C [18] 78.9% | viability, T/C [19] 99% | viability, T/C [20] 101% | viability, T/C [21] 100% | viability, T/C [22] 97.1% | viability, T/C [23] 105% | viability, T/C [24] 88.5% | viability, T/C [25] 92% | viability, T/C [26] 109% | viability, T/C [27] 93.9% | viability, T/C [28] 95.3% | viability, T/C [29] 95.5% | viability, T/C [30] 90.8% | viability, T/C [31] 82.7% | viability, T/C [32] 87.1% | viability, T/C [33] 100% | viability, T/C [34] 91.1% | viability, T/C [35] 87.7% | viability, T/C [36] 69%
> 10 µM: IC50 (second compound 0.0316 µM) | IC50 (second compound 0.1 µM) | IC50 (second compound 0.316 µM) | IC50 (second compound 1 µM) | IC50 (second compound 3.16 µM) | IC50 (second compound 10 µM)
